Where a name gives a salt, the structure may show the parent alone.
Each molecule was assayed against T1, human C1s protein (Homo sapiens, UniProt P09871) (assay: C1s enzymatic assay (hydrolysis of YLGR-Rh110-dPro)). Details: substrate YLGR-Rh110-dPro 20 μM, 15 min pre-incubation, 60 min RT, fluorescence, read-out: hC1s pIC50 (converted).
T1 construct: A104
T1 sequence (P09871 16-688): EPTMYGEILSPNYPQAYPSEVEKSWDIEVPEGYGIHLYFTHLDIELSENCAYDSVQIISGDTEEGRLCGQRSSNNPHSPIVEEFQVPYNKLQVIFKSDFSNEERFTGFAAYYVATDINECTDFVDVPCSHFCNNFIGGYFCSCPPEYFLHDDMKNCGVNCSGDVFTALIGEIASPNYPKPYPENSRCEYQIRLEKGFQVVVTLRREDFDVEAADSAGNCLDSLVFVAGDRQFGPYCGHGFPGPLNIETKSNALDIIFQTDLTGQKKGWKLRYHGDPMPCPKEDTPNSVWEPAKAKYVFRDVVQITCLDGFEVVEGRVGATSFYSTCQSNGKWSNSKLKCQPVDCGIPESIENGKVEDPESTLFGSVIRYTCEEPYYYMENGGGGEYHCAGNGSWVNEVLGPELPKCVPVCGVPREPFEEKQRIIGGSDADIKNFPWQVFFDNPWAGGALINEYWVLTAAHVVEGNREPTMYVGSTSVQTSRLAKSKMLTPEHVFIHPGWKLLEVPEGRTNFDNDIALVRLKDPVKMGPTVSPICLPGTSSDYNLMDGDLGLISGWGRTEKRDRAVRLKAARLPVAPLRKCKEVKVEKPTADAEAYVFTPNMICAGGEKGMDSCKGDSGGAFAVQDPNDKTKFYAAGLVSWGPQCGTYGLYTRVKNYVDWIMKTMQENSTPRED
Assay type: biochemical
Outline: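 Fluorogenic assay in which C1s cleaves YLGR-Rh110-dPro (20 μM final) to release fluorescent Rh110, in buffer with 0.1 mg/mL BSA. Enzyme was preincubated 15 min with compound before substrate was added. Compounds were run as 11-point curves, with DMSO as high control and Nafamostat as low control.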
For Nc1cnnc2cc(-c3cc(B(O)O)cc4ccoc34)ccc12 [Example 100, [7-(4-aminocinnolin-7-yl)-1-benzofuran-5-yl]boronic Acid], the IC50 was 0.776 nM.
Cc1nnc(N)c2ccc(-c3cc(B(O)O)cc4ccoc34)cc12 [Example 104, [7-(1-amino-4-methylphthalazin-6-yl)-1-benzofuran-5-yl]boronic Acid] gave an IC50 of 0.851 nM.
Nc1cnnc2cc(-c3cc(B(O)O)ccc3OC(F)(F)C(F)F)ccc12 [Example 105, [3-(4-aminocinnolin-7-yl)-4-(1,1,2,2-tetrafluoroethoxy)phenyl]boronic Acid] was tested, and the IC50 was 1.12 nM.
For Nc1cnnc2cc(-c3cc(B(O)O)ccc3OC(F)C(F)(F)F)ccc12 (stereo not drawn) [Example 106, [3-(4-aminocinnolin-7-yl)-4-(1,2,2,2-tetrafluoroethoxy)phenyl]boronic Acid], the IC50 was 1.02 nM.
For COCCOCCOc1ccc(B(O)O)cc1-c1ccc2c(N)cnnc2c1 [Example 107, [3-(4-aminocinnolin-7-yl)-4-[2-(2-methoxyethoxy)ethoxy]phenyl]boronic Acid], the IC50 was 1 nM.
Cc1cc(OC(F)F)c(-c2ccc3c(N)cnnc3c2)cc1B(O)O [Example 108, [5-(4-aminocinnolin-7-yl)-4-(difluoromethoxy)-2-methylphenyl]boronic Acid] gave an IC50 of 1.86 nM.
Molecule COc1ccc(B(O)O)cc1-c1ccc2c(N)ccnc2c1 [Example 109, [3-(4-aminoquinolin-7-yl)-4-methoxyphenyl]boronic Acid] has an IC50 of 871 nM.
Nc1cnnc2cc(-c3cc(B(O)O)ccc3OCCC3CCCO3)ccc12 (stereo not drawn) [Example 110, [3-(4-aminocinnolin-7-yl)-4-[2-(oxolan-2-yl)ethoxy]phenyl]boronic Acid] gave an IC50 of 0.661 nM.
Molecule COc1ccc(B(O)O)cc1-c1ccc2c(N)ncc(C)c2c1 [Example 111, [3-(1-amino-4-methylisoquinolin-6-yl)-4-methoxyphenyl]boronic Acid] has an IC50 of 17.4 nM.
Nc1cnnc2cc(-c3cc(B(O)O)ccc3OCCC3CCOC3)ccc12 (stereo not drawn) [Example 112, [3-(4-aminocinnolin-7-yl)-4-[2-(oxolan-3-yl)ethoxy]phenyl]boronic Acid] gave an IC50 of 0.776 nM.
Work on CC1(C)COC(COc2ccc(B(O)O)cc2-c2ccc3c(N)cnnc3c2)C1 (stereo not drawn) [Example 114, [3-(4-aminocinnolin-7-yl)-4-[(4,4-dimethyloxolane-2-yl)methoxy]phenyl]boronic Acid] yielded an IC50 of 1.05 nM.
For Nc1cnnc2cc(-c3cc(B(O)O)ccc3OCCC3CC3)ccc12 [Example 115, [3-(4-aminocinnolin-7-yl)-4-(2-cyclopropylethoxy)phenyl]boronic Acid], the IC50 was 0.794 nM.
In the case of COc1cc(C#N)c(B(O)O)cc1-c1ccc2c(N)nnc(C)c2c1 [Example 116, [5-(1-amino-4-methylphthalazin-6-yl)-2-cyano-4-methoxyphenyl]boronic Acid], the IC50 is reported as 2.24 nM.
Nc1cnnc2cc(-c3cc(B(O)O)ccc3OC3CCC3)ccc12 [Example 117, [3-(4-aminocinnolin-7-yl)-4-cyclobutoxyphenyl]boronic Acid] showed an IC50 of 0.708 nM.
For Nc1cnnc2cc(-c3cc(B(O)O)ccc3OCC(F)(F)F)ccc12 [Example 118, [3-(4-aminocinnolin-7-yl)-4-(2,2,2-trifluoroethoxy)phenyl]boronic Acid Formic Acid Salt], the IC50 was 1.1 nM.
Cc1nc2c(-c3ccc4c(N)cnnc4c3)cc(B(O)O)cc2o1 [Example 119, [4-(4-aminocinnolin-7-yl)-2-methyl-1,3-benzoxazol-6-yl]boronic Acid Formic Acid Salt] showed an IC50 of 0.646 nM.
CC(C)NC(=O)c1ccc(B(O)O)cc1-c1ccc2c(N)cnnc2c1 [Example 120, [3-(4-aminocinnolin-7-yl)-4-(propan-2-ylcarbamoyl)phenyl]boronic Acid Formic Acid Salt] showed an IC50 of 11.2 nM.
Work on C[C@@H]1C[C@@H](Oc2ccc(B(O)O)cc2-c2ccc3c(N)cnnc3c2)C[C@H](C)O1 [Example 121, [3-(4-aminocinnolin-7-yl)-4-{[(2R,4S,6S)-2,6-dimethyloxan-4-yl]oxy}phenyl]boronic Acid] yielded an IC50 of 4.9 nM.
With Cc1nc2cc(B(O)O)cc(-c3ccc4c(N)cnnc4c3)c2o1 [Example 122, [7-(4-aminocinnolin-7-yl)-2-methyl-1,3-benzoxazol-5-yl]boronic Acid Formic Acid Salt] the IC50 was 1.17 nM.
With C[C@@H]1C[C@H](Oc2ccc(B(O)O)cc2-c2ccc3c(N)cnnc3c2)C[C@H](C)O1 [Example 123, [3-(4-aminocinnolin-7-yl)-4-{[(2R,4R,6S)-2,6-dimethyloxan-4-yl]oxy}phenyl]boronic Acid Formic Acid Salt] the IC50 was 0.851 nM.
Molecule Nc1cnnc2cc(-c3cc(B(O)O)ccc3C(=O)N3CCCC3)ccc12 [Example 124, [3-(4-aminocinnolin-7-yl)-4-(pyrrolidine-1-carbonyl)phenyl]boronic Acid] has an IC50 of 7.59 nM.
Cc1nc2c(-c3ccc4c(N)nnc(C)c4c3)cc(B(O)O)cc2o1 [Example 125, [4-(1-amino-4-methylphthalazin-6-yl)-2-methyl-1,3-benzoxazol-6-yl]boronic Acid Formic Acid Salt] gave an IC50 of 3.24 nM.
Molecule Nc1cnnc2cc(-c3cc(B(O)O)ccc3OC3CCC(=O)NC3)ccc12 (stereo not drawn) [Example 126, [3-(4-aminocinnolin-7-yl)-4-[(6-oxopiperidin-3-yl)oxy]phenyl]boronic Acid] has an IC50 of 6.03 nM.
Nc1cnnc2cc(-c3ccc(CC(=O)O)c(B(O)O)c3)ccc12 [Example 127, 2-[4-(4-aminocinnolin-7-yl)-2-(dihydroxyboranyl)phenyl]acetic Acid] gave an IC50 of 13.2 nM.
Nc1cnnc2cc(-c3cc(B(O)O)cc4c3OC(F)(F)O4)ccc12 [Example 128, [7-(4-aminocinnolin-7-yl)-2,2-difluoro-2H-1,3-benzodioxol-5-yl]boronic Acid] was tested, and the IC50 was 0.55 nM.
COc1ccc(B(O)O)cc1-c1ccc2nccc(N)c2c1 [Example 129, [3-(4-aminoquinolin-6-yl)-4-methoxyphenyl]boronic Acid Formic Acid Salt] showed an IC50 of 6920 nM.
COc1ccc(B(O)O)cc1-c1cnc2c(N)nccc2c1 [Example 130, [3-(8-amino-1,7-naphthyridin-3-yl)-4-methoxyphenyl]boronic Acid Formic Acid Salt] showed an IC50 of 67.6 nM.
Cc1nnc(N)c2ccc(-c3cc(B(O)O)ccc3OC(F)F)cc12 [Example 131, [3-(1-amino-4-methylphthalazin-6-yl)-4-(difluoromethoxy)phenyl]boronic Acid Formic Acid Salt] showed an IC50 of 0.617 nM.
Molecule COc1cc(C)c(B(O)O)cc1-c1ccc2c(N)cnnc2c1 [Example 134, [5-(4-aminocinnolin-7-yl)-4-methoxy-2-methylphenyl]boronic Acid Formic Acid Salt] has an IC50 of 2.09 nM.
For COCc1cc(OC)c(-c2ccc3c(N)cnnc3c2)cc1B(O)O [Example 137, [5-(4-aminocinnolin-7-yl)-4-methoxy-2-(methoxymethyl)phenyl]boronic Acid Formic Acid Salt], the IC50 was 2.82 nM.
For Nc1cnnc2cc(-c3cc(B(O)O)cc4c3OCC4)ccc12 [Example 138, [7-(4-aminocinnolin-7-yl)-2,3-dihydro-1-benzofuran-5-yl]boronic Acid Formic Acid Salt], the IC50 was 1.62 nM.
Molecule COc1ccc(B(O)O)cc1-c1cnc2cnccc2c1 [Example 139, [4-methoxy-3-(1,7-naphthyridin-3-yl)phenyl]boronic Acid] has an IC50 of over 25100 nM.
Nc1cnnc2cc(-c3cc(B(O)O)ccc3OC3CC(F)(F)C3)ccc12 [Example 142, [3-(4-aminocinnolin-7-yl)-4-(3,3-difluorocyclobutoxy)phenyl]boronic Acid Formic Acid Salt] was tested, and the IC50 was 1.17 nM.
Molecule Nc1cnnc2cc(-c3cc(B(O)O)ccc3N3CCOCC3)ccc12 [Example 143, [3-(4-aminocinnolin-7-yl)-4-(morpholin-4-yl)phenyl]boronic Acid Formic Acid Salt] has an IC50 of 57.5 nM.
With COc1ccc(B(O)O)cc1-c1cnc2c(N)cnnc2c1 [Example 144, (3-{4-aminopyrido[3,2-C]pyridazin-7-yl}-4-methoxyphenyl)boronic Acid] the IC50 was 66.1 nM.
With Nc1cnnc2cc(-c3cc(B(O)O)cc4c3OCCC4)ccc12 [Example 145, [8-(4-aminocinnolin-7-yl)-3,4-dihydro-2H-chromen-6-yl]boronic Acid Formic Acid Salt] the IC50 was 3.09 nM.
For Cn1nc(C2CC2)c2c(B(O)O)cc(-c3ccc4c(N)cnnc4c3)cc21 [Example 146, [6-(4-aminocinnolin-7-yl)-3-cyclopropyl-1-methyl-1H-indazol-4-yl]boronic Acid], the IC50 was 5.25 nM.
In the case of Nc1cnnc2cc(-c3cc(B(O)O)c4occc4c3)ccc12 [Example 149, [5-(4-aminocinnolin-7-yl)-1-benzofuran-7-yl]boronic Acid Formic Acid Salt], the IC50 is reported as 0.603 nM.
Nc1cnnc2cc(-c3cc(B(O)O)ccc3N3CCCC3)ccc12 [Example 150, [3-(4-aminocinnolin-7-yl)-4-(pyrrolidin-1-yl)phenyl]boronic Acid Formic Acid Salt] showed an IC50 of 50.1 nM.
